Reference: patent US20020061888A1, “Combination therapy for the prophylaxis and treatment of hyperlipidemic conditions and disorders” (priority 2000, published 2002)

Experiments:
Male beagle dogs [1] = assay: Body or fecal weights, stool consistency, general animal health of treated beagle dogs; assay type: in vivo; conditions: any of the groups
Procedure: Male beagle dogs (9-10 kg) obtained from Marshall farms were fed a normal chow diet once a day for a two hour interval and given water ad libitum. Prior to initiating treatment, the dogs were weighed and blood samples were drawn from the cephalic vein of each dog following an overnight fast to evaluate pretreatment serum total cholesterol levels at the start of the study. […] All doses were administered in gelatin capsules per os to each dog between 9:00-9:30 a.m. prior to feeding. All animals were fed between 9:30-10:00 a.m. and were allowed two hours to eat, at which time any remaining food was removed. […] Animals were dosed daily for three weeks and blood samples were taken at the end of each week after an overnight fast for comparison with pretreatment serum total cholesterol levels. Three consecutive 24 hour fecal samples were collected for each group during the last 72 hours of each week and used to measure the concentration of fecal biles acids excreted during that time period.
(§1) Following this initial four week dose-ranging study, dogs from the two groups receiving 10 mg/kg/day pravastatin (a.m. and p.m. dosing groups) were randomized into two new treatment groups based on serum total cholesterol levels to initiate the combination treatment study. […] Dosing continued in this manner for an additional four weeks (Weeks 5-8) with blood and 48-hour fecal samples collected at the end of each week for serum lipid measurements and fecal bile acid determinations, respectively. […] At the end of this three-week period, pravastatin dosing and all empty capsule dosing were discontinued and blood samples were collected weekly for a final three weeks (weeks 12-14) to monitor the return of serum total cholesterol levels back to baseline.
Male beagle dogs (9-10 kg) obtained from Marshall farms were fed once a day for two hours and given water ad libitum.

Male beagle dogs [2] = assay: Serum triglyceride in beagle dogs; assay type: in vivo; conditions: n = 6
Procedure: as §1
Blood was collected from the cephalic vein of each dog into serum separator tubes. The blood was centrifuged at 900×g for 20 minutes at room temperature and the serum decanted. All analyses were performed on a Cobas Mira Clinical Analyzer System (Roche Diagnostic Systems, Branchburg, N.J.) using Roche Diagnostic reagents for enzymatic determinations of serum cholesterol and triglycerides. Commercial calibrator and quality control materials were analyzed with each run to verify assay accuracy and precision. A two-tailed, paired Students t-test was used to determine the statistical significance of changes in total serum cholesterol in treated animals compared to their pretreatment values. A two-sample, two-tailed unequal variance Students t-test was used to determine serum total cholesterol and triglyceride changes in the combination therapy group compared to the monotherapy groups. […]

[3] = Example 3 study (pravastatin 3-30 mg/kg/day, compound A-5 4.0 mg/kg/day, combination)

CCCCC1(CC)CS(=O)(=O)c2ccc(N(C)C)cc2[C@@H](c2cccc(OCc3ccc(C[N+]45CCN(CC4)CC5)cc3)c2)[C@H]1O.[Cl-] (stereo partly shown) [Compound A-5]
changes in body or fecal weights, stool consistency or general animal health (Male beagle dogs [1]; Example 1, compound A-5 0.22-6.0 mg/kg/day for three weeks): no significant changes
changes in body or fecal weights, stool consistency or general animal health (Male beagle dogs [1]; [3]): no significant changes
TOTAL SERUM TRIGLYCERIDE (Male beagle dogs [2]; compound A-5 monotherapy 4.0 mg/kg/day, dosed Weeks 5-8, Week 5, mean ± SEM): 37 ± 3 mg/dL
TOTAL SERUM TRIGLYCERIDE (Male beagle dogs [2]; compound A-5 monotherapy 4.0 mg/kg/day, dosed Weeks 5-8, Week 6, mean ± SEM): 32 ± 3 mg/dL
TOTAL SERUM TRIGLYCERIDE (Male beagle dogs [2]; compound A-5 monotherapy 4.0 mg/kg/day, dosed Weeks 5-8, Week 7, mean ± SEM): 36 ± 3 mg/dL
TOTAL SERUM TRIGLYCERIDE (Male beagle dogs [2]; compound A-5 monotherapy 4.0 mg/kg/day, dosed Weeks 5-8, Week 8, mean ± SEM): 34 ± 3 mg/dL
TOTAL SERUM TRIGLYCERIDE (Male beagle dogs [2]; compound A-5 monotherapy group, dosing terminated after Week 8, Week 9, mean ± SEM): 39 ± 3 mg/dL
TOTAL SERUM TRIGLYCERIDE (Male beagle dogs [2]; compound A-5 monotherapy group, dosing terminated after Week 8, Week 10, mean ± SEM): 42 ± 4 mg/dL
TOTAL SERUM TRIGLYCERIDE (Male beagle dogs [2]; compound A-5 monotherapy group, dosing terminated after Week 8, Week 11, mean ± SEM): 34 ± 3 mg/dL
TOTAL SERUM TRIGLYCERIDE (Male beagle dogs [2]; compound A-5 monotherapy group, dosing terminated after Week 8, Week 12, mean ± SEM): 51 ± 5 mg/dL
TOTAL SERUM TRIGLYCERIDE (Male beagle dogs [2]; compound A-5 monotherapy group, dosing terminated after Week 8, Week 13, mean ± SEM): 46 ± 3 mg/dL

CC[C@H](C)C(=O)O[C@H]1C[C@H](O)C=C2C=C[C@H](C)[C@H](CC[C@@H](O)C[C@@H](O)CC(=O)O)[C@H]21 [pravastatin, Pravastatin]
changes in body or fecal weights, stool consistency or general animal health (Male beagle dogs [1]; [3]): no significant changes
TOTAL SERUM TRIGLYCERIDE (Male beagle dogs [2]; pravastatin monotherapy 10 mg/kg/day, dosed Weeks 1-11, Week 4, mean ± SEM): 30 ± 4 mg/dL
TOTAL SERUM TRIGLYCERIDE (Male beagle dogs [2]; pravastatin monotherapy 10 mg/kg/day, dosed Weeks 1-11, Week 5, mean ± SEM): 34 ± 3 mg/dL
TOTAL SERUM TRIGLYCERIDE (Male beagle dogs [2]; pravastatin monotherapy 10 mg/kg/day, dosed Weeks 1-11, Week 6, mean ± SEM): 35 ± 4 mg/dL
TOTAL SERUM TRIGLYCERIDE (Male beagle dogs [2]; pravastatin monotherapy 10 mg/kg/day, dosed Weeks 1-11, Week 7, mean ± SEM): 37 ± 3 mg/dL
TOTAL SERUM TRIGLYCERIDE (Male beagle dogs [2]; pravastatin monotherapy 10 mg/kg/day, dosed Weeks 1-11, Week 8, mean ± SEM): 38 ± 5 mg/dL
TOTAL SERUM TRIGLYCERIDE (Male beagle dogs [2]; pravastatin monotherapy 10 mg/kg/day, dosed Weeks 1-11, Week 9, mean ± SEM): 34 ± 2 mg/dL
TOTAL SERUM TRIGLYCERIDE (Male beagle dogs [2]; pravastatin monotherapy 10 mg/kg/day, dosed Weeks 1-11, Week 11, mean ± SEM): 33 ± 3 mg/dL
TOTAL SERUM TRIGLYCERIDE (Male beagle dogs [2]; pravastatin monotherapy group, dosing terminated after Week 11, Week 12, mean ± SEM): 46 ± 4 mg/dL
TOTAL SERUM TRIGLYCERIDE (Male beagle dogs [2]; pravastatin monotherapy group, dosing terminated after Week 11, Week 13, mean ± SEM): 44 ± 3 mg/dL
TOTAL SERUM TRIGLYCERIDE (Male beagle dogs [2]; pravastatin monotherapy group, dosing terminated after Week 11, Week 14, mean ± SEM): 40 ± 4 mg/dL
